The supplement of paper PMC10307832

Assays:
Assay in all cases: relative viability (nuclei count vs DMSO), 5 days (fraction); higher = more cells survive
Dactolisib + Trametinib = compound: Cn1c(=O)n(-c2ccc(C(C)(C)C#N)cc2)c2c3cc(-c4cnc5ccccc5c4)ccc3ncc21 [Dactolisib] + CC(=O)Nc1cccc(-n2c(=O)n(C3CC3)c(=O)c3c(Nc4ccc(I)cc4F)n(C)c(=O)c(C)c32)c1 [Trametinib] (partner 0.02 µM)
How it was run: (§1)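 Medians of duplicate plates are given as relative viability. That measure is the nuclei count in treated wells divided by the count in vehicle wells. Counts were taken on 4× images of lung cancer cell lines in 1536-well plates, 5 days after pin-tool dosing the day after seeding with one drug alone or a fixed anchor-drug dose plus five library-drug doses (not always all listed) in √10 steps.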

Dactolisib + Pictilisib = compound: Cn1c(=O)n(-c2ccc(C(C)(C)C#N)cc2)c2c3cc(-c4cnc5ccccc5c4)ccc3ncc21 [Dactolisib] + CS(=O)(=O)N1CCN(Cc2cc3nc(-c4cccc5[nH]ncc45)nc(N4CCOCC4)c3s2)CC1 [Pictilisib] (partner 1 µM)
How it was run: as §1

Dactolisib + Vorinostat = compound: Cn1c(=O)n(-c2ccc(C(C)(C)C#N)cc2)c2c3cc(-c4cnc5ccccc5c4)ccc3ncc21 [Dactolisib] + O=C(CCCCCCC(=O)Nc1ccccc1)NO [Vorinostat] (partner 1 µM)
How it was run: as §1

AZ505 + Phenformin = compound: C1CCC(CC1)N(CCNCCC2=C3C(=C(C=C2)O)NC(=O)CO3)C(=O)CCNCCC4=CC(=C(C=C4)Cl)Cl [AZ505] + N=C(N)NC(=N)NCCc1ccccc1 [Phenformin] (partner 250 µM)
How it was run: as §1

Cell Line	relative viability (Dactolisib + Trametinib; first compound 0.002 µM)	relative viability (Dactolisib + Trametinib; first compound 0.006325 µM)	relative viability (Dactolisib + Trametinib; first compound 0.02 µM)	relative viability (Dactolisib + Trametinib; first compound 0.06325 µM)	relative viability (Dactolisib + Trametinib; first compound 0.2 µM)	relative viability (Dactolisib + Pictilisib; first compound 0.002 µM)	relative viability (Dactolisib + Pictilisib; first compound 0.006325 µM)	relative viability (Dactolisib + Pictilisib; first compound 0.02 µM)	relative viability (Dactolisib + Pictilisib; first compound 0.06325 µM)	relative viability (Dactolisib + Pictilisib; first compound 0.2 µM)	relative viability (Dactolisib + Vorinostat; first compound 0.002 µM)	relative viability (Dactolisib + Vorinostat; first compound 0.006325 µM)	relative viability (Dactolisib + Vorinostat; first compound 0.02 µM)	relative viability (Dactolisib + Vorinostat; first compound 0.06325 µM)	relative viability (Dactolisib + Vorinostat; first compound 0.2 µM)	relative viability (AZ505 + Phenformin; first compound 0.08 µM)	relative viability (AZ505 + Phenformin; first compound 0.253 µM)	relative viability (AZ505 + Phenformin; first compound 0.8 µM)	relative viability (AZ505 + Phenformin; first compound 2.53 µM)	relative viability (AZ505 + Phenformin; first compound 8 µM)
NCI-H596	0.776	0.7	0.496	0.491	0.298	0.373	0.348	0.383	0.352	0.299	0.48	0.577	0.521	0.313	0.222	0.619	0.833	0.859	0.719	0.754
A-427	0.669	0.637	0.694	0.4	0.369	0.648	0.674	0.718	0.49	0.498	0.894	0.864	0.834	0.706	0.647	0.309	0.255	0.327	0.395	0.298
EMC-BAC-2	0.897	0.866	0.839	0.461	0.375	0.528	0.542	0.512	0.379	0.341	0.492	0.442	0.353	0.266	0.219	0.497	0.593	0.496	0.508	0.487
NCI-H441	0.523	0.412	0.43	0.217	0.213	0.758	0.464	0.412	0.285	0.233	0.841	0.675	0.802	0.276	0.34	0.742	0.814	0.905	0.907	0.786
LCLC-103H	0.664	0.604	0.581	0.515	0.42	0.611	0.583	0.602	0.577	0.498	0.82	0.863	0.719	0.443	0.412	0.321	0.292	0.318	0.381	0.378
HCC-827	0.582	0.563	0.477	0.313	0.269	1.28	0.997	0.932	0.654	0.63	0.966	0.934	0.785	0.498	0.82	0.401	0.427	0.453	0.44	0.425
NCI-H1355	0.45	0.37	0.384	0.215	0.203	0.505	0.401	0.43	0.32	0.241	0.693	0.608	0.558	0.408	0.295	0.433	0.407	0.477	0.481	0.499
NCI-H1734	0.69	0.557	0.624	0.374	0.25	0.468	0.395	0.39	0.26	0.216	0.612	0.705	0.632	0.325	0.258	0.393	0.351	0.402	0.406	0.425
HARA	0.872	0.549	0.732	0.259	0.218	0.469	0.34	0.366	0.277	0.236	0.578	0.461	0.523	0.41	0.11	0.389	0.422	0.42	0.343	0.408
HCC-15	0.383	0.346	0.365	0.215	0.162	0.762	0.746	0.707	0.392	0.343	0.961	0.786	0.85	0.498	0.373	0.411	0.476	0.474	0.415	0.446
LCLC-97TM1	0.2	0.187	0.167	0.135	0.104	0.252	0.151	0.169	0.145	0.12	0.615	0.655	0.612	0.251	0.311	0.386	0.445	0.416	0.428	0.462
RERF-LC-KJ	0.86	0.902	0.772	0.407	0.467	0.562	0.519	0.466	0.41	0.293	0.683	0.699	0.707	0.452	0.542	0.393	0.436	0.394	0.348	0.358
NCI-H1651	0.816	0.825	0.822	0.599	0.452	0.654	0.514	0.449	0.328	0.265	0.579	0.645	0.547	0.391	0.377	0.385	0.346	0.318	0.357	0.345
NCI-H2170	0.925	0.881	0.845	0.478	0.35	0.305	0.311	0.289	0.22	0.224	0.821	0.815	0.754	0.613	0.259	0.396	0.42	0.397	0.405	0.421
NCI-H2023	0.582	0.461	0.304	0.103	0.0921	0.205	0.212	0.173	0.121	0.108	0.305	0.479	0.439	0.098	0.11	0.379	0.449	0.405	0.442	0.31
LC-2-ad	0.838	0.883	0.99	0.969	0.863	0.291		0.428	0.389	0.262	0.857	0.699	0.749	0.524	0.496	0.561	0.538	0.572	0.64	0.579
NCI-H1703								0.257	0.228	0.192										
NCI-H1437	0.558	0.507	0.487	0.369	0.292	0.452	0.421	0.371	0.268	0.165	0.865	0.836	0.802	0.68	0.552	0.311	0.286	0.298	0.317	0.311
SW 1573	0.529	0.438	0.482	0.144	0.163	0.609	0.446	0.405	0.35	0.15	0.571	0.588	0.627	0.243	0.25	0.36	0.402	0.333	0.341	0.373
H3255	0.657	0.58	0.507	0.539	0.455	0.513	0.44	0.473	0.35	0.339	0.936	0.783	0.706	0.811	0.594	0.303	0.377	0.379	0.321	0.38

Cell Line	relative viability (Dactolisib + Trametinib; first compound 0.002 µM)	relative viability (Dactolisib + Trametinib; first compound 0.006325 µM)	relative viability (Dactolisib + Trametinib; first compound 0.02 µM)	relative viability (Dactolisib + Trametinib; first compound 0.06325 µM)	relative viability (Dactolisib + Trametinib; first compound 0.2 µM)	relative viability (Dactolisib + Pictilisib; first compound 0.002 µM)	relative viability (Dactolisib + Pictilisib; first compound 0.006325 µM)	relative viability (Dactolisib + Pictilisib; first compound 0.02 µM)	relative viability (Dactolisib + Pictilisib; first compound 0.06325 µM)	relative viability (Dactolisib + Pictilisib; first compound 0.2 µM)	relative viability (Dactolisib + Vorinostat; first compound 0.002 µM)	relative viability (Dactolisib + Vorinostat; first compound 0.006325 µM)	relative viability (Dactolisib + Vorinostat; first compound 0.02 µM)	relative viability (Dactolisib + Vorinostat; first compound 0.06325 µM)	relative viability (Dactolisib + Vorinostat; first compound 0.2 µM)	relative viability (AZ505 + Phenformin; first compound 0.08 µM)	relative viability (AZ505 + Phenformin; first compound 0.253 µM)	relative viability (AZ505 + Phenformin; first compound 0.8 µM)	relative viability (AZ505 + Phenformin; first compound 2.53 µM)	relative viability (AZ505 + Phenformin; first compound 8 µM)
Calu-6						0.935	0.855	0.729	0.414	0.352										
NCI-H1792	0.498	0.407	0.267	0.174	0.0814	0.323	0.246	0.218	0.0901	0.0962						0.302		0.31	0.417	0.263
SK-MES-1	0.581	0.528	0.467	0.355	0.263	0.391	0.356	0.297	0.337	0.182	0.954	1	0.998	0.504	0.475	0.485	0.618	0.643	0.67	0.601
NCI-H1650	0.63	0.614	0.503	0.339	0.22	0.672	0.48	0.524	0.321	0.323	0.47	0.508	0.504	0.32	0.264	0.429	0.4	0.423	0.405	0.463
NCI-H2087	0.229	0.217	0.214	0.127	0.114	1.02	0.867	0.714	0.463	0.336	0.731	0.458	0.501	0.176	0.339	0.389	0.35	0.395	0.396	0.471
HCC-366	0.367	0.299	0.238	0.107	0.101	0.201	0.147	0.124	0.0657	0.102	0.285	0.407	0.325	0.0887	0.0549	0.577	0.632	0.572	0.56	0.582
NCI-H727		0.42	0.358	0.401	0.373	0.275	0.339	0.396	0.212	0.227		1.31	1.16	0.981	1.3	0.651	0.461	0.525		0.613
LU99A	0.527	0.493	0.4	0.286	0.192	0.299	0.285	0.269	0.222	0.179	0.417	0.368	0.407	0.246	0.162		0.741	0.987	0.715	0.853
EBC-1						0.332	0.279	0.279	0.204	0.171										
NCI-H1623																0.54	0.504	0.621	0.509	0.629
NCI-H1648	0.467	0.434	0.647	0.387	0.24						0.506	0.421	0.654	0.435	0.203					
NCI-H522	0.69	0.678	0.921	0.504	0.512						0.861	0.833	0.79	0.822	0.657	0.526	0.521	0.61	0.732	0.626
NCI-H1563						0.682	0.624	0.625	0.651	0.573						0.626	0.646	0.696	0.664	0.666
NCI-H1299						0.794	0.701	0.659	0.351	0.253										
NCI-H2342	0.825	0.72	0.811	0.538	0.54						0.656	0.832	0.698	0.75	0.568	0.573	0.559	0.733	0.697	0.677
A549						0.544	0.356	0.3	0.145	0.112						0.15	0.19	0.145	0.113	0.166
SW 900	0.923	0.718	0.746	0.516	0.318						0.478	0.443	0.434	0.216	0.24	0.618	0.522	0.588	0.695	0.647
IA-LM						0.371	0.331	0.219	0.116	0.0809	1	0.903	0.817	0.426	0.267					
ABC-1						0.675	0.618	0.627	0.402	0.331	1.19	1.34	0.94	0.824	0.529	0.196	0.211	0.242	0.252	0.219
